Test results: article PMC10354432, “Preparation of caffeic acid grafted chitosan self-assembled micelles to enhance oral bioavailability and antibacterial activity of quercetin” (Frontiers in Veterinary Science, 2023)

What was measured:
[1] = Particle size and morphology by transmission electron microscopy; assay type: physicochemical
Excerpt: We evaluated the successful preparation of CA-g-CS by UV absorption and IR detection of CS, CA, and CA-g-CS and compared the solubility of CS as well as CA-g-CS in water. The morphology of CA-g-CS/QR and QR was characterized by transmission electron microscopy. CA-g-CS/QR and QR were dropped on clean copper grids, negatively stained with 2% phosphotungstic acid solution, and the water was evaporated in the air at room temperature. The samples were dried and placed under transmission electron microscopy to observe the morphology.

[2] = Stability of QR in white broiler plasma; assay type: in vitro ADME
Protocol: Precision and accuracy were assessed by running the standards (n = 6) for 1 day and three consecutive days for three levels of concentration (10.0, 100.0, and 500.0 ng/ml) at low, medium, and high. The stability of QR in the samples was also investigated by sampling and analyzing the three levels of spiked plasma at −20°C for 1 week and 4°C for 24 h.

[3] = In vivo pharmacokinetics in white-finned broiler chickens; settings: Chinese white-finned broiler, po, i.g., 36 mg/kg
Excerpt: The experimental procedures were reviewed and approved by the Institutional Animal Care and Use Committee of Hebei Agricultural University and carried out in accordance with the Guidelines for the Care and Use of Laboratory Animals of China. In this study, 12 healthy 30 days old Chinese white-finned broilers were used for the trial. All broilers were reared from 1 day of age and were provided with adequate basal diets and water, which were formulated to meet or exceed the nutritional requirements of broilers. Room temperature was maintained at 35°C for the first 3 days, then decreased to 28–30°C for the next 2 weeks and 25°C for the rest of the period. Broilers were randomly divided into two treatment groups (six broilers per treatment, n = 6) before the experiment, fasted for 18 h, and watered ad libitum. The experiment was administered by instillation, and blood was collected under the wings during the experiment according to the time designed for the experiment, and the plasma was centrifuged and separated for storage in a refrigerator at −20°C for processing and analysis. At the end of the experiment, broilers were euthanized.
The Waters Acquity UPLC H-Class system (Waters, Milford, MA, USA) includes a four-stage solvent manager, an autosampler set at 4°C and a Waters Acquity UPLC Shield RP18 column (100 × 2.1 mm, 1.7 μm, Waters. Milford, MA, USA). The mobile phase was methanol-0.1% phosphate (72:28, v/v). Detection was performed by a photodiode array detector at 373 nm at a flow rate of 0.2 mL/min. This assay was developed for the determination of QR in blood plasma.
A 200μL aliquot of plasma was sequentially added 20μL of 40μg/mL kaempferol internal standard, 100 μL of 25% HCL and 2 mL of ethyl acetate vortexed for 2 min equally. This mixture was centrifuged at 5000 rpm for 10 min, and the supernatant was transferred into a centrifuge tube and then concentrated to dryness under nitrogen. The analytes were dissolved in 200 μL of methanol/0.1% phosphoric acid water (4:1, v/v).
White-finned broilers were randomly divided into two experimental groups, one for the QR solution group and the other for the CA-g-CS/QR group, with six replicates in each group. The CA-g-CS/QR solution and the original QR solution were prepared and administered to the chickens at a dose of 36 mg/kg, and blood was collected under the wings at 15, 30, 60, 120, 240, 360, 480, 720, 1440, and 2160 min after the administration, placed in sodium heparin anticoagulation tubes and centrifuged to separate the plasma.
Pharmacokinetic parameters were estimated by blood concentration-time curves from Phoenix WinNonlin software. The […] was used to calculate the terminal elimination half-life (t1/2, λz), the area under the blood concentration-time curve (AUC0 − t), terminal feed time (AUC0−∞), total clearance (CL), and volume of distribution (Vd, λz). The peak blood concentration (Cmax) and time to peak (Tmax) were read directly from the observed individual blood concentration-time data. For instillation administration, the relative bioavailability (F) was calculated using the AUC0−∞ of CA-g-CS/QR versus QR.

[4] = test system: Escherichia coli CMCC44102; experiment: MIC and MBC, micro broth twofold dilution; assay type: cell-based
Protocol: (§1) We selected Escherichia coli CMCC44102 and Escherichia coli of chicken origin as experimental strains to determine their Minimum Inhibitory Concentration (MIC) and Minimum Bactericidal Concentration (MBC). The culture medium was configured and autoclaved, and the bacteria were cultured. The bacterial broth of the logarithmic growth period was diluted by micro broth twofold dilution method, 100 μL broth was added to each well of a sterile 96-well plate, and then 100 μL of prepared drug solution was added to the first well respectively, mixed well, and then diluted in multiples until the last well was mixed and 100 μL of the mixture was discarded. Each well was added with 100 μL of the prepared bacterial diluent, and a positive control (with bacteria and no drug) and a negative control (without bacteria and no drug) were set up. […] The tritriazolium chloride (TTC) method was used to determine the MIC results. 5 g/L TTC was added to each well of the 96-well plate after incubation for 1 h at 37°C, and the MIC was determined as the lowest antibacterial drug concentration in the wells with bacterial growth and the wells without bacterial growth. 100 μL of the liquid from each well clarified in the above test group was spread on solid, and the lowest drug concentration for no colony growth was its MBC. Agar plate experiments were also performed using the Oxford cup method, using CA-g-CS/QR with QR aqueous solution and maintaining the same concentration, sterile water group and CA-g-CS group were set, and three parallel experiments were performed to further confirm the antibacterial activity of the compounds.

[5] = test system: Escherichia coli of chicken origin; experiment: MIC and MBC, micro broth twofold dilution; assay type: cell-based
Protocol: as §1

[6] = rats; cited from earlier work
[7] = no colony growth on solid medium

SMILES: O=c1c(O)c(-c2ccc(O)c(O)c2)oc2cc(O)cc(O)c12 [QR, Quercetin]
- particle size [1]: 1.5 ± 0.1 μm
- remaining at 24 h, 10 ng/mL ([2]; prepared plasma sample, 10 ng/mL, read-out: Remaining (%) in prepared plasma sample stored at 4°C for 24h): 92.8 ± 2.94%
- remaining at 24 h, 100 ng/mL ([2]; prepared plasma sample, 100 ng/mL, read-out: Remaining (%) in prepared plasma sample stored at 4°C for 24h): 97.2 ± 5.63%
- remaining at 24 h, 500 ng/mL ([2]; prepared plasma sample, 500 ng/mL, read-out: Remaining (%) in prepared plasma sample stored at 4°C for 24h): 99.98 ± 0.45%
- remaining at 168 h, 10 ng/mL ([2]; spiked plasma, 10 ng/mL, read-out: Remaining (%) in plasma stored at −20°C for 7 days): 96.6 ± 6.62%
- remaining at 168 h, 100 ng/mL ([2]; spiked plasma, 100 ng/mL, read-out: Remaining (%) in plasma stored at −20°C for 7 days): 103 ± 8.97%
- remaining at 168 h, 500 ng/mL ([2]; spiked plasma, 500 ng/mL, read-out: Remaining (%) in plasma stored at −20°C for 7 days): 93.5 ± 1.78%
- AUC(0-inf) ([3]; n = 6): 2840 ng·h/mL
- AUC(0-t) ([3]; n = 6): 2760 ng·h/mL
- CL/F ([3]; n = 6): 219 ± 44.1 mL/min/kg
- Cmax ([3]; n = 6): 278 ± 18.5 ng/mL
- Tmax ([3]; n = 6): 2 h
- half-life ([3]; n = 6, read-out: T1/2, λz): 6.98 ± 0.704 h
- Vd/F ([3]; n = 6, read-out: Vd, λz/F): 132 ± 25.5 L/kg
- MIC ([4]; 24 h at 37°C, TTC method): 0.013 mol/L
- MBC [4, 7]: 0.026 mol/L
- MIC ([5]; 24 h at 37°C, TTC method): 0.0585 mol/L
- MBC [5, 7]: 0.117 mol/L
- oral bioavailability [6]: < 17%
